The values below come from US11021457B2, “Class of isoindolone-imide ring-1,3-dione-2-ene compounds, composition and use thereof” (WIGEN BIOMEDICINE TECHNOLOGY (SHANGHAI) CO., LTD., priority 2017, dated 2021).

In one experiment the test system is SU-DHL6. Description: Inhibition of tumor cell proliferation, CellTiter-Glo, SU-DHL6. It counts as cell-based. As to conditions: compound concentration 50 μM, 72 hours. Put shortly:
(§1)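 Cells seeded at 2000-10000 cells/well in complete medium at 37° C., 5% CO2; suspension lines dosed immediately, adherent lines after attachment. Viability by CellTiter-Glo luminescence at 72 h; survival % from blank-corrected RLU vs control. Scored at 50 μM: + (60-<90%), ++ (>30-60%), +++ (≤30%).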
(In general: Cellular ATP, detected with luciferase, serves as a proxy for viable cell number.)

Another experiment has as its system RPMI-8226. The experiment in a line: Inhibition of tumor cell proliferation, CellTiter-Glo, RPMI-8226. It counts as cell-based. As to conditions: compound concentration 50 μM, 72 hours. Put shortly: as §1
The next experiment has as its system K562. Description: Inhibition of tumor cell proliferation, CellTiter-Glo, K562. The format is cell-based. The settings on record: compound concentration 50 μM, 72 hours. Put shortly: as §1
Another experiment relates to A549. The experiment in a line: Inhibition of tumor cell proliferation, CellTiter-Glo, A549. It counts as cell-based. As to conditions: compound concentration 50 μM, 72 hours. Put shortly:
as §1

A further experiment has as its system MDA-MB-453. Description: Inhibition of tumor cell proliferation, CellTiter-Glo, MDA-MB-453. As to conditions: compound concentration 50 μM, 72 hours. The format is cell-based. Put shortly:
as §1

The test system of a further experiment is BxPC-3. The experiment in a line: Inhibition of tumor cell proliferation, CellTiter-Glo, BxPC-3. The format is cell-based. The settings on record: compound concentration 50 μM, 72 hours. Put shortly: as §1
Another experiment has as its target LC3B (Homo sapiens (Human), UniProt Q9GZQ8). Description: Fluorescence polarization experiment targeting LC3B (GST-LC3B with FITC-labeled peptide). The settings on record: GST-LC3B 180 nM, FITC-labeled peptide 18 nM, 25° C.

A word on the IC50: it is the concentration that inhibits the measured activity by half. Higher therefore signals lower potency.

On to `O=C1CCC(N2Cc3c(NC=C4C(=O)CC(c5c(C(F)(F)F)ccc(Cl)c5F)CC4=O)cccc3C2=O)C(=O)N1` (stereo not shown) [Compound 142], for which the “Inhibitory activity against proliferation (cell survival rate) SU-DHL6” value in the experiment with SU-DHL6 is “+++ (survival rate (%)≤30)”. Besides, the “Inhibitory activity against proliferation (cell survival rate) RPMI-8226” value in the experiment on RPMI-8226 was “+++ (survival rate (%)≤30)”. In addition, the “Inhibitory activity against proliferation (cell survival rate) K562” value in the experiment on K562 is “+++ (survival rate (%)≤30)”. In addition, in the experiment on A549, the “Inhibitory activity against proliferation (cell survival rate) A549” value is “+ (60≤survival rate (%)<90)”. Also, the “Inhibitory activity against proliferation (cell survival rate) MDA-MB-453” value in the experiment with MDA-MB-453 is on record as “+++ (survival rate (%)≤30)”. Besides, the “Inhibitory activity against proliferation (cell survival rate) BxPC-3” value with BxPC-3 is “+ (60≤survival rate (%)<90)”. The molecule further gave an IC50 at LC3B of less than 3000 nM.

Turning to `COc1cc(Br)c(C2CC(=O)C(=CNc3cccc4c3CN(C3CCC(=O)NC3=O)C4=O)C(=O)C2)cc1OC` (stereo not shown) [Compound 143], in the experiment with SU-DHL6, the “Inhibitory activity against proliferation (cell survival rate) SU-DHL6” value was “+++ (survival rate (%)≤30)”. Further, in the experiment on RPMI-8226, the “Inhibitory activity against proliferation (cell survival rate) RPMI-8226” value is “++ (30<survival rate (%)≤60)”. For the same molecule, the “Inhibitory activity against proliferation (cell survival rate) K562” value in the experiment with K562 is reported as “++ (30<survival rate (%)≤60)”. In addition, in the experiment on A549, the “Inhibitory activity against proliferation (cell survival rate) A549” value is reported as “+++ (survival rate (%)≤30)”. Further, the “Inhibitory activity against proliferation (cell survival rate) MDA-MB-453” value with MDA-MB-453 was “+++ (survival rate (%)≤30)”. Also, the “Inhibitory activity against proliferation (cell survival rate) BxPC-3” value in the experiment on BxPC-3 was “+ (60≤survival rate (%)<90)”. On LC3B, this molecule yielded an IC50 of less than 3000 nM.

For the molecule `O=C1CCC(N2Cc3c(NC=C4C(=O)CC(c5cc(C(F)(F)F)ccc5Cl)CC4=O)cccc3C2=O)C(=O)N1` (stereo not shown) [Compound 144], the “Inhibitory activity against proliferation (cell survival rate) SU-DHL6” value with SU-DHL6 was “+++ (survival rate (%)≤30)”. In addition, the “Inhibitory activity against proliferation (cell survival rate) RPMI-8226” value with RPMI-8226 is recorded as “+++ (survival rate (%)≤30)”. For the same molecule, the “Inhibitory activity against proliferation (cell survival rate) K562” value with K562 was “+++ (survival rate (%)≤30)”. Besides, the “Inhibitory activity against proliferation (cell survival rate) A549” value with A549 was “+ (60≤survival rate (%)<90)”. The “Inhibitory activity against proliferation (cell survival rate) MDA-MB-453” value with MDA-MB-453 is on record as “+++ (survival rate (%)≤30)”. Further, the “Inhibitory activity against proliferation (cell survival rate) BxPC-3” value in the experiment on BxPC-3 is on record as “+ (60≤survival rate (%)<90)”. At LC3B, the IC50 was less than 3000 nM.

Regarding `O=C1CCC(N2Cc3c(NC=C4C(=O)CC(c5ccc(Cl)cc5F)CC4=O)cccc3C2=O)C(=O)N1` (stereo not shown) [Compound 145], in the experiment with SU-DHL6, the “Inhibitory activity against proliferation (cell survival rate) SU-DHL6” value is given as “+++ (survival rate (%)≤30)”. In the experiment on RPMI-8226, the “Inhibitory activity against proliferation (cell survival rate) RPMI-8226” value is “++ (30<survival rate (%)≤60)”. Also, the “Inhibitory activity against proliferation (cell survival rate) K562” value in the experiment with K562 is recorded as “++ (30<survival rate (%)≤60)”. Besides, the “Inhibitory activity against proliferation (cell survival rate) A549” value with A549 is given as “+++ (survival rate (%)≤30)”. The “Inhibitory activity against proliferation (cell survival rate) MDA-MB-453” value in the experiment on MDA-MB-453 was “+++ (survival rate (%)≤30)”. In addition, the “Inhibitory activity against proliferation (cell survival rate) BxPC-3” value in the experiment with BxPC-3 is “+ (60≤survival rate (%)<90)”. At LC3B, this molecule gave an IC50 of less than 3000 nM.

Take `O=C1CCC(N2Cc3c(NC=C4C(=O)CC(c5cccc(Cl)c5F)CC4=O)cccc3C2=O)C(=O)N1` (stereo not shown) [Compound 146]: the “Inhibitory activity against proliferation (cell survival rate) SU-DHL6” value in the experiment on SU-DHL6 is “+++ (survival rate (%)≤30)”. Also, the “Inhibitory activity against proliferation (cell survival rate) RPMI-8226” value in the experiment with RPMI-8226 was “+++ (survival rate (%)≤30)”. In addition, the “Inhibitory activity against proliferation (cell survival rate) K562” value in the experiment with K562 is reported as “+++ (survival rate (%)≤30)”. Also, the “Inhibitory activity against proliferation (cell survival rate) A549” value in the experiment on A549 is recorded as “+ (60≤survival rate (%)<90)”. Besides, the “Inhibitory activity against proliferation (cell survival rate) MDA-MB-453” value in the experiment on MDA-MB-453 is given as “+++ (survival rate (%)≤30)”. The “Inhibitory activity against proliferation (cell survival rate) BxPC-3” value with BxPC-3 is reported as “+ (60≤survival rate (%)<90)”. Further, the IC50 at LC3B was less than 3000 nM.

For `O=C1CCC(N2Cc3c(NC=C4C(=O)CC(c5c(F)cccc5Cl)CC4=O)cccc3C2=O)C(=O)N1` (stereo not shown) [Compound 147], in the experiment with SU-DHL6, the “Inhibitory activity against proliferation (cell survival rate) SU-DHL6” value is given as “+++ (survival rate (%)≤30)”. In addition, the “Inhibitory activity against proliferation (cell survival rate) RPMI-8226” value with RPMI-8226 is listed as “+++ (survival rate (%)≤30)”. The “Inhibitory activity against proliferation (cell survival rate) K562” value in the experiment with K562 is “+++ (survival rate (%)≤30)”. Also, in the experiment on A549, the “Inhibitory activity against proliferation (cell survival rate) A549” value is given as “+++ (survival rate (%)≤30)”. The “Inhibitory activity against proliferation (cell survival rate) MDA-MB-453” value with MDA-MB-453 was “++ (30<survival rate (%)≤60)”. Also, in the experiment with BxPC-3, the “Inhibitory activity against proliferation (cell survival rate) BxPC-3” value is listed as “++ (30<survival rate (%)≤60)”. For the same molecule, the IC50 against LC3B is less than 3000 nM.

For the molecule `O=C1CCC(N2Cc3c(NC=C4C(=O)CC(c5cc(O)ccc5Br)CC4=O)cccc3C2=O)C(=O)N1` (stereo not shown) [Compound 148], the “Inhibitory activity against proliferation (cell survival rate) SU-DHL6” value with SU-DHL6 was “+++ (survival rate (%)≤30)”. Besides, the “Inhibitory activity against proliferation (cell survival rate) RPMI-8226” value in the experiment with RPMI-8226 was “++ (30<survival rate (%)≤60)”. Also, the “Inhibitory activity against proliferation (cell survival rate) K562” value with K562 is listed as “++ (30<survival rate (%)≤60)”. The “Inhibitory activity against proliferation (cell survival rate) A549” value with A549 was “+++ (survival rate (%)≤30)”. Moreover, in the experiment on MDA-MB-453, the “Inhibitory activity against proliferation (cell survival rate) MDA-MB-453” value is given as “+++ (survival rate (%)≤30)”. Besides, the “Inhibitory activity against proliferation (cell survival rate) BxPC-3” value in the experiment with BxPC-3 is on record as “+ (60≤survival rate (%)<90)”. Further, the IC50 at LC3B is less than 3000 nM.
